For one assay, the system named is SLBRSK678. The experiment in a line: ELISA, immobilized GST-SLBR. Details: species or system Streptococcus sanguinis. The conditions noted are these: labelled compound (biotinylated glycan); 500 nM immobilized GST-SLBR.
In the next assay the test system is SLBRUB10712. The experiment in a line: ELISA, immobilized GST-SLBR. The conditions noted are these: labelled compound (biotinylated glycan); 500 nM immobilized GST-SLBR. Details: species or system Streptococcus gordonii. For orientation: In an ELISA, binding on a coated surface is turned into a signal by an enzyme label.
The target of assay [1] is T1, SLBRHsa (Streptococcus gordonii, UniProt A8AWU7). The format is binding. Details: gene hsa. The conditions noted are these: labelled compound (biotinylated glycan); 500 nM immobilized GST-SLBR.
For assay [2], the target named is T2, SLBRGspB (Streptococcus gordonii, UniProt Q939N5).
T2 construct: gene gspB
Set-up: ELISA, binding of biotinylated glycans to immobilized GST-SLBR (500 nM), absorbance at 450 nm. Particulars: biotinylated glycan, binder.

Assay [3] has as its target T1, SLBRHsa. Set-up: gene hsa; ELISA: GST fusion (pGEX-3X); crystals: His6-MBP tag cleaved with thrombin; E. coli. Particulars: binder.
For assay [4], the target named is T2, SLBRGspB. The experiment in a line: ELISA, immobilized GST-SLBR. It is filed as binding. The conditions noted are these: labelled compound (biotinylated glycan).

Values after ≈ are worked out from the molar mass of the structure shown. Like-named read-outs stand apart in the source and are kept apart here.

T2 sequence (Q939N5 245-604): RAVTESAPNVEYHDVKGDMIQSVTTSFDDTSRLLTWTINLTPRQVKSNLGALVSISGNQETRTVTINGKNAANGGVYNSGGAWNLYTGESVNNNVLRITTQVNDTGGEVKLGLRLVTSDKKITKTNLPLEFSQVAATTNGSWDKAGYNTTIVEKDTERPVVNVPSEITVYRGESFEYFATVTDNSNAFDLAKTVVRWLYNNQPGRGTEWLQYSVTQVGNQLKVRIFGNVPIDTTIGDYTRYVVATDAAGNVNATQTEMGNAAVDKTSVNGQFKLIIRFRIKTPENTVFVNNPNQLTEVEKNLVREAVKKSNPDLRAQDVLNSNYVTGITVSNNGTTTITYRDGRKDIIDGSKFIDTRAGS
T1 sequence (A8AWU7 220-453): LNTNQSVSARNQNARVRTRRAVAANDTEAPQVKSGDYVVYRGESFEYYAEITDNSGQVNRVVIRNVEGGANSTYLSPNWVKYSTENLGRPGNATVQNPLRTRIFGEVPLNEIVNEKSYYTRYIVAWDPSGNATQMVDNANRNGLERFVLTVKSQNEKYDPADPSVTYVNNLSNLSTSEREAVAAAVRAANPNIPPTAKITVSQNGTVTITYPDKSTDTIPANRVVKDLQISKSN

With `CC(=O)N[C@H]1[C@H]([C@H](O)[C@H](O)CO)O[C@@](O[C@H]2[C@@H](O)[C@@H](CO)O[C@@H](O[C@H]3[C@H](O)[C@@H](NC(C)=O)C(O)O[C@@H]3CO)[C@@H]2O)(C(=O)O)C[C@@H]1O` (stereo partly shown) [3’-sialyl-N-acetyllactosamine], the EC50 with SLBRSK678 is 0.90 ± 0.51 µg/mL (≈ 1.33 µM); with SLBRUB10712, 0.13 ± 0.19 µg/mL (≈ 0.193 µM); on SLBRHsa [1], 2.39 µM; at SLBRGspB [2] (read-out: 3'sLn), more than 7.41 µM.
As for `CC(=O)N[C@H]1[C@H]([C@H](O)[C@H](O)CO)O[C@@](O[C@H]2[C@@H](O)[C@@H](CO)O[C@@H](O[C@H]3[C@H](O[C@@H]4O[C@@H](C)[C@@H](O)[C@@H](O)[C@@H]4O)[C@@H](NC(C)=O)C(O)O[C@@H]3COS(=O)(=O)O)[C@@H]2O)(C(=O)O)C[C@@H]1O` (stereo partly shown) [6-O-sulfo-sialyl Lewis X], the EC50 in the assay on SLBRSK678 is 0.63 ± 0.36 µg/mL (≈ 0.699 µM); in the assay with SLBRUB10712, 0.14 ± 0.10 µg/mL (≈ 0.155 µM); on SLBRHsa [3] (read-out: 6S-sLe^X), more than 5.55 µM.
With `CC(=O)N[C@H]1[C@H]([C@H](O)[C@H](O)CO)O[C@@](O[C@H]2[C@@H](O)[C@@H](CO)O[C@@H](O[C@@H]([C@H](O[C@@H]3O[C@@H](C)[C@@H](O)[C@@H](O)[C@@H]3O)[C@H](C=O)NC(C)=O)[C@H](O)CO)[C@@H]2O)(C(=O)O)C[C@@H]1O` [sLe^X, sialyl Lewis X], at SLBRHsa [3] (read-out: sLe^X), the EC50 was more than 6.09 µM.
On to `CC(=O)N[C@H]1[C@H]([C@H](O)[C@H](O)CO)O[C@@](O[C@H]2[C@@H](O)[C@@H](CO)O[C@@H](O[C@H]3[C@H](O)[C@@H](CO)OC(O)[C@@H]3NC(C)=O)[C@@H]2O)(C(=O)O)C[C@@H]1O` (stereo partly shown) [sialyl Lewis^C], for which the EC50 was 0.993 µM at SLBRHsa [1] and more than 7.41 µM at SLBRGspB [2] (read-out: sLe^C).
In the case of `CC(=O)N[C@H]1[C@H]([C@H](O)[C@H](O)CO)O[C@@](O[C@H]2[C@@H](O)[C@@H](CO)O[C@@H](O[C@H]3[C@@H](O)[C@@H](CO)OC(O)[C@@H]3NC(C)=O)[C@@H]2O)(C(=O)O)C[C@@H]1O` (stereo partly shown) [sialyl-T antigen], at SLBRGspB [4], the “ELISA, immobilized GST-SLBR” value is listed as “recapitulated here by ELISA showing concentration-dependent binding”. Moreover, the values for the EC50 at SLBRHsa [1] and at SLBRGspB [2] (read-out: sTa) were 0.178 µM and 0.119 µM, respectively.

Values taken from publication PMC9117288, “Origins of glycan selectivity in streptococcal Siglec-like adhesins suggest mechanisms of receptor adaptation” (Nature Communications, 2022).
